{"source": "paper PMC3606118", "about": "“Salvianolic Acid A, a Novel Matrix Metalloproteinase-9 Inhibitor, Prevents Cardiac Remodeling in Spontaneously Hypertensive Rats” (PLoS ONE, 2013)", "key": {"[1]": {"test_system": "neonatal cardiac fibroblast", "assay": "Multiplex cytokine assay (Procarta) in cardiac fibroblast supernatants", "assay_type": "cell-based, Wistar rats", "conditions": "1 or 10 µmol/L SalA, 24 h", "experimental": "Primary cardiac fibroblast was obtained from neonatal rats and National Institutes of Health (NIH) Guide for the Care and Use of Laboratory Animals was followed throughout. Wistar rats (2–4 day old) were sacrificed by cervical dislocation; ventricles were minced and digested with 0.1% trypsin at 37°C for 8 min. The liberated cells were collected by centrifugations; non-digested chunk materials were further digested in 0.1% trypsin for an additional 8 min. This digestion procedure was repeated 3–4 times. All the liberated cells were pelleted by centrifugation at 1,000 rpm for 10 min, re-suspended in DMEM containing 10% fetal bovine serum (FBS), and cultured in a 100-mm noncoated culture flask at 37°C with 5% CO2 for 2 h. Adherent cardiac fibroblasts were collected and maintained in DMEM supplemented with 10% FBS, 100 U/mL penicillin, 100 µg/mL streptomycin [12]. Cardiac fibroblasts were treated by vehicle (Con); 200 nmol/L MMP-9 CD (MMP-9); 200 nmol/L MMP-9 CD plus 1 µmol/L SalA [MMP-9/SalA(1)]; or 200 nmol/L MMP-9 CD plus 10 µmol/L SalA [MMP-9/SalA(10)] for the following research. All the detections were conducted after 24 h treatment.\nProcarta cytokine profiling kit (Panomics, CA, USA) was used to simultaneously detect 3 different rat cytokines in the cell culture supernatants, according to manufacturer’s instruction. Briefly, 50 µL antibody beads were added to each well of the Filter plate, washed with Wash buffer. Fifty microliter cell culture supernatant was then added to each well, incubated for at least 1 h at room temperature, and washed with Wash buffer. Afterwards, 25 µL per well of the Detection Antibody was added and the Filter plate was shaken at 500 rpm for 30 min at room temperature. After adding Sreptavidin-PE, the signals were detected using a Luminex 200 instrument (Bio-Rad, CA, USA). The cytokines included in the present study were intercellular adhesion molecule (ICAM), interleukin-6 (IL-6), tumor necrosis factor-α (TNF-α and soluble vascular cell adhesion molecule-1 (sVCAM-1)."}, "[2]": {"assay": "Toxicological evaluation of SalA on SHR", "assay_type": "in vivo, SHR rats", "experimental": "(§1) 2-month old male SHR rats were given rodent chow containing 8% NaCl 4 weeks before SaA treatment to the end of the experiment. Rats were divided into four groups (20 per group) and were injected intraperitoneally with saline or SalA everyday at the indicated dose for 4 weeks. The four groups were named as SalA (0 mg/kg), SalA (2.5 mg/kg), SalA (5 mg/kg), SalA (10 mg/kg) basing on the dose of SalA, respectively.\n(§2) After ketamine-xylazine anesthesia (ketamine: xylazine, 60∶5 mg/kg, intramuscularly), heart, liver and kidney samples from experimental animals were fixed with 4% neutral-buffered paraformaldehyde for 24 h. Specimens were paraffin-embedded, sliced at 5 µm, and stained with haematoxylin and eosin. After staining, the sections were rinsed with distilled water, dehydrated, and mounted with Permount. Photomicrographs were taken using an Olympus BX51 microscope plus Olympus DP71 CCD camera (Olympus Corporation). Software Image-Pro Plus version 6.0 was used and approximately 150 cells per heart were measured to determine the average myocyte circumference. Paraffin-embedded slices were also stained with 0.1% picric sirius red (Sigma-Aldrich Inc, St Louis, USA) for fibrillar collagen. Collagen volume fraction (CVF) was expressed as a percentage of the total area of the field occupied by collagen staining."}, "[3]": {"test_system": "spontaneously hypertensive rats (SHR)", "assay_type": "in vivo", "conditions": "for HW/BW (heart weight divided by body weight): 0 mg 4.37±0.08; for collagen volume fraction: 0 mg/kg 4.61±0.31", "experimental": "as §1, §2"}, "[4]": {"biological_target": "T1, MMP-9 CD (Homo sapiens, UniProt P14780, DEL217-390)", "T1 construct": "corresponding to residues 107–216 and 391–444; made in house", "T1 sequence (P14780 with tags, fused parts or gaps DEL217-390 limits assumed)": "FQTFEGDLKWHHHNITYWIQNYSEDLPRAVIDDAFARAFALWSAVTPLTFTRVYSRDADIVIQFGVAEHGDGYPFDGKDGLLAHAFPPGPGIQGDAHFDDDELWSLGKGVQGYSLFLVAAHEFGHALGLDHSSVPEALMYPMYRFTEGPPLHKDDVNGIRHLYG", "assay": "MMP-9 inhibition assay (thiopeptolide, enzyme kinetic analysis)", "assay_type": "biochemical", "experimental": "Phenolic acids at the indicated concentrations were incubated with the reaction mixtures contained MMP-9 CD (15 nmol/L) and 5,5′-dithiobis-(2-nitrobenzoic acid) (1 mmol/L) at 4°C for 30 min. The reaction was initiated by the addition of thiopeptolide (Ac-Pro-Leu-Gly-S-Leu-Leu-Gly-OEt). Hydrolysis of thiopeptolide was monitored at 412 nm using Benchmark Plus™ microplate spectrophotometer (Bio-Rad) at room temperature. Kinetic analysis of phenolic acids against MMP-9 CD was calculated using double reciprocal plots of 1/V versus 1/[thiopeptolide]. The slope of every double reciprocal plot is the Km ^app/Vmax of enzyme at different compound concentration. Secondary plot was drawn through Km ^app/Vmax versus compound concentration. Km ^app is apparent value of Km; Ki is inhibition constant; Ki was calculated using the equation Ki = [Km/Vmax][compound]/(Km ^app/Vmax –Km/Vmax)."}, "[5]": {"conditions": "2.5 mg/kg i.p. everyday 4 weeks"}}, "note": "Read-outs that look alike come from different tables or passages of the source."}
{"compound": "O=C(/C=C/c1ccc(O)c(O)c1/C=C/c1ccc(O)c(O)c1)O[C@H](Cc1ccc(O)c(O)c1)C(=O)O", "note": "[SalA, salvianolic acid A]", "values": [{"measurement": "ICAM secretion induced by MMP-9 CD", "setting": "[1]", "value": "inhibition"}, {"measurement": "IL-6 secretion induced by MMP-9 CD", "setting": "[1]", "value": "inhibition"}, {"measurement": "TNF-α secretion induced by MMP-9CD", "setting": "[1]", "value": "No significant inhibitory effect"}, {"measurement": "sVCAM-1 secretion induced by MMP-9 CD", "setting": "[1]", "value": "inhibition"}, {"measurement": "signs of toxicity or mortality", "setting": "[2]; intraperitoneally administered to rats for 1 month", "value": "failed to induce any signs of toxicity or mortality"}, {"measurement": "body weight, food consumption", "setting": "[2]; rat, in vivo, 10 mg/kg", "value": "no changes"}, {"measurement": "HW/BW (heart weight divided by body weight)", "setting": "[3]; [5]", "value": "4.36 ± 0.05", "unit": "mg/g"}, {"measurement": "collagen volume fraction", "setting": "[3]; [5]", "value": "4.48±0.29", "unit": "%"}, {"measurement": "HW/BW (heart weight divided by body weight)", "setting": "[3]; 5 mg/kg i.p. everyday 4 weeks", "value": "4.37 ± 0.08", "unit": "mg/g"}, {"measurement": "collagen volume fraction", "setting": "[3]; 5 mg/kg i.p. everyday 4 weeks", "value": "3.04±0.16", "unit": "%"}, {"measurement": "HW/BW (heart weight divided by body weight)", "setting": "[3]; 10 mg/kg i.p. everyday 4 weeks, p<0.05", "value": "4.10 ± 0.08", "unit": "mg/g"}, {"measurement": "collagen volume fraction", "setting": "[3]; 10 mg/kg i.p. everyday 4 weeks", "value": "2.58±0.17", "unit": "%"}, {"measurement": "cardiomyocyte size (myocyte circumference)", "setting": "[3]; SalA treatment versus SHR, p<0.001", "value": "significantly down-regulated"}, {"measurement": "inhibition mode on MMP-9", "setting": "[4]; double reciprocal plots", "value": "competitively"}, {"measurement": "Ki", "setting": "[4]; spectrophotometric enzyme kinetic assay, thiopeptolide substrate", "value": "5.74 ± 1.15", "unit": "µM"}]}
